Data on 19 compounds can be found in patent publication US10851065B2 (Eisai R&D Management Co., Ltd., priority 2015, dated 2020).

Test [1] concerns MCF7-WT cells (MCF7 ER-alpha wildtype). As to the kind of experiment: In vitro proliferation (viability) assay, CellTiter-Glo, MCF7-WT cells. It counts as cell-based. As to conditions: Homo sapiens; MCF7-WT cells, 6 days, CTG vs day 0; mean ± SD-type spread (n); read-out: GI50 WT. On the procedure:
(§1) MCF7 BUS cells (Coser, et al., (2003) PNAS 100(24): 13994-13999) were maintained in Dulbecco's Modified Eagle Medium supplemented with 10% FBS, 4 mM L-glutamine and 1× non-essential amino acids. Lenti-X 293T cells (Clontech, Cat #632180) were routinely cultured in Dulbecco's Modified Eagle Medium supplemented with 10% FBS.
(§2) The QuikChange II XL Site-Directed Mutagenesis Kit (Agilent Technologies, Cat #200523) was used to generate Y537S, Y537C, Y537N and D538G mutations within the ERα exon 8. Wild-type ESR1 cDNA (GeneCopoeia Inc., Cat #GC-A0322, accession no. NM 000125) was used as a template with the following mutagenesis primers (where the underlined nucleotides represent site mutations); Y537S: F-AAGAACGTGGTGCCCCTCTCTGACCTGCTGCTGGAGATG (SEQ ID NO: 1), R-CATCTCCAGCAGCAGGTCAGAGAGGGGCACCACGTTCTT (SEQ ID NO: 2); Y537N: F-AAGAACGTGGTGCCCCTCAATGACCTGCTGCTGGAGATG (SEQ ID NO: 3), R-CATCTCCAGCAGCAGGTCATTGAGGGGCACCACGTTCTT (SEQ ID NO: 4); Y537C: F-AAGAACGTGGTGCCCCTCTGTGACCTGCTGCTGGAGATG (SEQ ID NO: 5), R-CATCTCCAGCAGCAGGTCACAGAGGGGCACCACGTTCTT (SEQ ID NO: 6); D538G: F-AACGTGGTGCCCCTCTATGGCCTGCTGCTGGAGATGCTG (SEQ ID NO: 7), R-CAGCATCTCCAGCAGCAGGCCATAGAGGGGCACCACGTT (SEQ ID NO: 8). WT and mutant ESR1 cDNAs were cloned into the designation lentiviral vector pLenti6.3/V5-Dest (Invitrogen, Cat #V533-06). To make lentivirus, DNAs (WT and mutant ESR1) were co-transfected with packaging plasmids into Lenti-X 293T cells using TransIT (Mirus, Cat #MIR 2700). 48 h post-transfection, virus containing media was filtered and added to MCF7 cells in the presence of 8 µg/ml polybrene overnight. Two days following infection, cells were placed under selection with 10 μg/ml blasticidin for 2 weeks for stable expression.
(§3) MCF7-WT and -Y537S cells were seeded at 1500 cells/well in black-walled 96-well plates (assay plates, Costar, Cat #3904). In parallel, cells were also seeded in a separate 96-well plate (8 wells/cell line, control plate) for which a CTG (CellTiter-Glo® Luminescent Viability Assay, Promega, Cat #G7572) was measured the following day (day 0 reading). The day 0 reading was used for the GI50 calculation at the termination of the experiment. The day following seeding, compounds were added to assay plates. Briefly, a 1:4 serial dilution was prepared in DMSO at 200× final concentration for a total of 10 concentrations (9 dilutions containing compound and one is DMSO only). Serially diluted compounds were pipetted into medium to prepare a compound-medium mix at 10× final concentration. 10 μl of compound-medium mix was added to MCF7-WT and -Y537S cells at 3 wells/concentration (triplicate for each concentration). On day 3, media/compound was removed and replaced with fresh media/compound as described above. On day 6, CTG was measured and compared to day 0 readings from control plate to assess GI50.
On the technique in general: ATP-based viability assays read luminescence as a measure of living cells.

In test [2] the test system is MCF7-Y537S cells (MCF7 ER-alpha Y537S mutant). Nature of the test: In vitro proliferation (viability) assay, CellTiter-Glo, MCF7-Y537S cells. The format is cell-based. As to conditions: Homo sapiens; MCF7-Y537S cells, 6 days, CTG vs day 0; mean ± SD-type spread (n); read-out: GI50 MUT (Y537S). How it is done:
as §1, §2, §3

The structures appear in SMILES notation.

As usually defined, the GI50 is the concentration at which growth is held to half of that of the control.

For `CC/C(=C(/c1ccc(OCCNC/C=C/C(=O)N(C)C)cc1)c1ccc2[nH]nc(F)c2c1)c1ccccc1F` [Compound 43, (E)-4-((2-(4-((E)-1-(3-fluoro-1H-indazol-5-yl)-2-(2-fluorophenyl)but-1-en-1-yl)phenoxy)ethyl)amino)-N,N-dimethylbut-2-enamide], the GI50 in test [1] amounted to 1.94 nM; in test [2], 47.3 nM.
For `CC/C(=C(/c1ccc(OCCNC/C=C/C(=O)N(C)C)cc1)c1ccc2[nH]nc(F)c2c1)c1cccc(F)c1` [Compound 44, (E)-4-((2-(4-((E)-1-(3-fluoro-1H-indazol-5-yl)-2-(3-fluorophenyl)but-1-en-1-yl)phenoxy)ethyl)amino)-N,N-dimethylbut-2-enamide] the same measures were 4.91 nM and 180 nM.
In the same order, the values of `CC/C(=C(/c1ccc(OCCNC/C=C/C(=O)N(C)C)cc1)c1ccc2[nH]nc(F)c2c1)c1ccc(F)cc1` [Compound 45] are 4.14 nM and 104 nM.
In the same order, the values of `CN(C)C(=O)/C=C/CNCCOc1ccc(/C(=C(\c2ccc(F)cc2Cl)C2CCC2)c2ccc3[nH]nc(F)c3c2)cc1` [Compound 46, (E)-4-((2-(4-((E)-2-(2-chloro-4-fluorophenyl)-2-cyclobutyl-1-(3-fluoro-1H-indazol-5-yl)vinyl)phenoxy)ethyl)amino)-N,N-dimethylbut-2-enamide] are 0.95 nM and 12.4 nM.
Turning to `CC/C(=C(/c1ccc(OCCNC/C=C/C(=O)N(C)C)c(F)c1)c1ccc2[nH]nc(F)c2c1)c1ccccc1` [Compound 49, (E)-4-((2-(2-fluoro-4-((Z)-1-(3-fluoro-1H-indazol-5-yl)-2-phenylbut-1-en-1-yl)phenoxy)ethyl)amino)-N,N-dimethylbut-2-enamide], the GI50 in test [1] worked out at 5.4 nM; in test [2], 288 nM.
`CC/C(=C(/c1ccc(OCCNC/C=C/C(=O)N(C)C)cc1)c1ccc2[nH]nc(F)c2c1)c1c(F)cccc1F` [Compound 50, (E)-4-((2-(4-((E)-2-(2,6-difluorophenyl)-1-(3-fluoro-1H-indazol-5-yl)but-1-en-1-yl)phenoxy)ethyl)amino)-N,N-dimethylbut-2-enamide]: the concentration for 50% growth inhibition (GI50) worked out at 2.46 nM in test [1] and 67.5 nM in test [2].
For `CC/C(=C(/c1ccc(OCCNC/C=C/C(=O)N(C)C)cc1)c1ccc2[nH]nc(F)c2c1)c1cccnc1` [Compound 51, (E)-4-((2-(4-((E)-1-(3-fluoro-1H-indazol-5-yl)-2-(pyridin-3-yl)but-1-en-1-yl)phenoxy)ethyl)amino)-N,N-dimethylbut-2-enamide] the same measures were 20.9 nM and 347 nM.
Turning to `CC/C(=C(/c1ccc(OCCNC/C=C/C(=O)N(C)C)cc1)c1ccc2[nH]nc(F)c2c1)c1ccncc1` [Compound 52, (E)-4-((2-(4-((E)-1-(3-fluoro-1H-indazol-5-yl)-2-(pyridin-4-yl)but-1-en-1-yl)phenoxy)ethyl)amino)-N,N-dimethylbut-2-enamide], the GI50 in test [1] was determined as 2.9 nM; in test [2] it was 85.8 nM.
In the same order, the values of `CN(CCO)C(=O)/C=C/CNCCOc1ccc(/C(=C(\c2ccccc2)C2CCC2)c2ccc3[nH]nc(F)c3c2)cc1` [Compound 53, (E)-4-((2-(4-((E)-2-cyclobutyl-1-(3-fluoro-1H-indazol-5-yl)-2-phenylvinyl)phenoxy)ethyl)amino)-N-(2-hydroxyethyl)-N-methylbut-2-enamide] are 3.59 nM and 76.5 nM.
For `C/C(=C(/c1ccc(OCCNC/C=C/C(=O)N(C)C)cc1)c1ccc2[nH]ncc2c1)c1ccccc1` [Compound 54, (E)-4-((2-(4-((E)-1-(1H-indazol-5-yl)-2-phenylprop-1-en-1-yl)phenoxy)ethyl)amino)-N,N-dimethylbut-2-enamide] the same measures were 7.97 ± 1.65 nM and 160 ± 39.6 nM.
In the same order, the values of `CN(C)C(=O)/C=C/CNCCOc1ccc(/C(=C(\c2ccccc2)C2CC2)c2ccc3[nH]ncc3c2)cc1` [Compound 56, (E)-4-((2-(4-((E)-2-cyclopropyl-1-(1H-indazol-5-yl)-2-phenylvinyl)phenoxy)ethyl)amino)-N,N-dimethylbut-2-enamide] are 3.78 ± 1.75 nM and 63.6 ± 18.4 nM.
Consider `CC/C(=C(/c1ccc(OCCNC/C=C/C(=O)N(C)C)cc1)c1ccc2[nH]ncc2c1F)c1ccc(F)cc1Cl` [Compound 57, (E)-4-((2-(4-((E)-2-(2-chloro-4-fluorophenyl)-1-(4-fluoro-1H-indazol-5-yl)but-1-en-1-yl)phenoxy)ethyl)amino)-N,N-dimethylbut-2-enamide], for which the figures for the GI50 in test [1] and in test [2] were 1.9 nM and 36.2 nM, respectively.
For `CC/C(=C(/c1ccc(OCCNC/C=C/C(=O)N(C)C)nc1)c1ccc2[nH]nc(F)c2c1)c1ccc(F)cc1Cl` [Compound 58, (E)-4-((2-((5-((Z)-2-(2-chloro-4-fluorophenyl)-1-(3-fluoro-1H-indazol-5-yl)but-1-en-1-yl)pyridin-2-yl)oxy)ethyl)amino)-N,N-dimethylbut-2-enamide], the results for the GI50 in test [1] and in test [2] were 1.3 ± 0.4 nM and 17.9 ± 4.5 nM, respectively.
Turning to `CN(C)C(=O)/C=C/CNCCOc1ccc(/C(=C(/CC(F)(F)F)c2ccc(F)cc2Cl)c2ccc3[nH]nc(F)c3c2)cn1` [Compound 59, (E)-4-((2-((5-((Z)-2-(2-chloro-4-fluorophenyl)-4,4,4-trifluoro-1-(3-fluoro-1H-indazol-5-yl)but-1-en-1-yl)pyridin-2-yl)oxy)ethyl)amino)-N,N-dimethylbut-2-enamide], the GI50 in test [1] was 0.33 ± 0.18 nM; in test [2], 15.2 ± 3.7 nM.
On to `CN(C)C(=O)/C=C/CNCCOc1ccc(/C(=C(/CC(F)(F)F)c2ccncc2F)c2ccc3[nH]nc(F)c3c2)cc1` [Compound 61, (E)-N,N-dimethyl-4-((2-(4-((E)-4,4,4-trifluoro-1-(3-fluoro-1H-indazol-5-yl)-2-(3-fluoropyridin-4-yl)but-1-en-1-yl)phenoxy)ethyl)amino)but-2-enamide], for which the GI50 came to 0.3 ± 0.1 nM in test [1] and 4 ± 1.5 nM in test [2].
For the compound `CN(C)C(=O)/C=C/CNCCOc1ccc(/C(=C(/CC(F)(F)F)c2ccncc2F)c2ccc3[nH]nc(F)c3c2)cn1` [Compound 62, (E)-N,N-dimethyl-4-((2-((5-((Z)-4,4,4-trifluoro-1-(3-fluoro-1H-indazol-5-yl)-2-(3-fluoropyridin-4-yl)but-1-en-1-yl)pyridin-2-yl)oxy)ethyl)amino)but-2-enamide], the GI50 amounted to 0.3 nM in test [1] and 1.3 nM in test [2].
For `CC/C(=C(/c1ccc(OCCNC/C=C/C(=O)N(C)C)cc1)c1ccc2[nH]ncc2n1)c1ccccc1` [Compound 63, (E)-N,N-dimethyl-4-((2-(4-((E)-2-phenyl-1-(1H-pyrazolo[4,3-b]pyridin-5-yl)but-1-en-1-yl)phenoxy)ethyl)amino)but-2-enamide], the GI50 worked out at 2.8 nM in test [1] and 65.7 nM in test [2].
Consider `CC/C(=C(\c1ccc2[nH]nc(F)c2c1)c1ccc(OCCNC/C=C/C(=O)N(C)C)cc1F)c1ccccc1` [Compound 64, (E)-4-((2-(3-fluoro-4-((Z)-1-(3-fluoro-1H-indazol-5-yl)-2-phenylbut-1-en-1-yl)phenoxy)ethyl)amino)-N,N-dimethylbut-2-enamide], for which the GI50 in test [1] came to 3.1 nM; in test [2] it was 58.3 nM.
For `CC/C(=C(/c1ccc(OCCNC/C=C/C(=O)N(C)C)cc1)c1ccc2[nH]nc(F)c2c1)c1ccc(F)cc1F` [Compound 65, (E)-4-((2-(4-((E)-2-(2,4-difluorophenyl)-1-(3-fluoro-1H-indazol-5-yl)but-1-en-1-yl)phenoxy)ethyl)amino)-N,N-dimethylbut-2-enamide] the same measures were 4 nM and 66 nM.
